Like-named read-outs stand apart in the source and are kept apart here.
Columns and labels:
SKOV-3 xenografts = assay: PET-CT imaging and kinetic modeling, SKOV-3 xenografts; type: in vivo, mice
Method: […] […] To investigate response to HSP90 inhibition, SKOV-3 xenograft-bearing mice were treated with 50 mg/kg NVP-AUY922 or equivalent volume of vehicle (˜5 μL/g body weight; 10% DMSO and 5% Tween-20 in PBS) q.d. i.p. for three days. 24 h after the last treatment, animals were used for PET imaging.
Mice were anesthetized through isoflurane inhalation and scanned on a dedicated small animal PET-CT scanner (Siemens Multimodality Inveon, Erlangen, Germany). Low dose CT scans were first acquired (80 kVp, 0.5 mA, 220 degree rotation, 600 ms per degree exposure time, 80 μm reconstruction pixel size) for PET attenuation correction and to obtain an anatomical reference. PET images were acquired following a bolus i.v. injection of approximately 3.7 MBq [^18F]GE-226 in the tail vein. Dynamic emission scans were acquired in list mode format over 60 minutes. The acquired data were sorted into 0.5-mm sinogram bins and 19 time frames for image reconstruction by filtered back projection (4×15 seconds and 4×60 seconds followed by 11×300 seconds). The Siemens Inveon Research Workplace software was used for visualization of radiotracer uptake. 30 to 60-minute cumulative images of the dynamic data were employed to define 3-dimensional (3D) regions of interest (ROI). Arterial input function was estimated by drawing ROIs over the center of the heart cavity using 0.25 to 2 minutes of cumulative images. The count densities were averaged for all ROIs at each time point to obtain time versus radioactivity curves (TAC). Tumor TACs were normalized to injected dose measured by a VDC-304 dose calibrator (Veenstra Instruments, Joure, Netherlands) and normalized uptake was expressed as percentage injected dose per mL tissue (NUV; % ID/mL). Normalized uptake of radiotracer at 60 minutes (NUV60) was used for comparisons. For qualitative image visualization, cumulative images of the dynamic data (30 to 60 min) were also iteratively reconstructed (OSEM3D).
Kinetic analysis of PET data was performed applying a standard two-tissue irreversible compartmental model to fit each tumor TAC with the corresponding image-derived plasma TAC as input function (IF) to estimate K1 (mL/cm^3/min), k2, (1/min) and k3 (1/min) and the blood vascular component Vb (mL blood/mL tissue; unitless). The irreversible uptake rate Ki (mL/cm^3/min) was computed as K1×k3/(k2+k3). To estimate the kinetic parameters the measured tumor TAC (tTAC) was modeled as tTAC(t)=(1−Vb)h(t)⊗IF(t)+VbIF(t) with h(t) indicating the unknown tissue impulse function and ⊗ the convolution operator. The parameter vector p=[K1, k2, k3, Vb] was estimated with the standard Weighted Non-Linear Least Squares (WNLLS) by minimizing the Weighted Residual Sum of Squares (WRSS) function

rhesus HER2 = assay: Surface Plasmon Resonance, rhesus HER2-ECD-Fc; type: binding
Method: To characterize the affinity of [^19F]GE-226[SEQ ID NO 1] to HER2 protein, Surface Plasmon Resonance studies were conducted. Human, rhesus and rat HER2-ECD-Fc (SINO Biological, Beijing, China, Cat. Nr: 10004-H02H, 90020-K02H, and 80079-R02H), as well as human HER2-ECD-Fc-6×His (R&D Systems, Minneapolis, Minn., Cat. Nr: 1129-ER) and p95HER2 ECD-Fc-6×His (Syngene, Cambridge, United Kingdom) were diluted with 50 mM sodium acetate pH 4.5 (Biacore (GE Healthcare, Buckinghamshire, UK) coupling buffer) to a final concentration of 10 μg/mL. Antigen coupling to Biacore sensor chip CMS (Cat. Nr: BR-1005-30) was done according to amine coupling protocol from the instrument manual (Syngene). HBS-EP buffer (10 mM HEPES pH 7.4, 150 mM NaCl, 3 mM EDTA and 0.005% surfactant P20; GE Healthcare, Little Chalfont, United Kingdom, Cat. Nr: BR-1006-69) was used as running buffer and as solvent for the substances. The affinity studies were performed using a Biacore T100 (GE Healthcare). [^19F]GE-226 was diluted in HBS-EP buffer to 50 nM, 25 nM, 12.5 nM, 6.25 nM, 3.125 nM, 1.56 nM, 0.78 nM, 0.39 nM, 0.195 nM, 0.097 nM, 0.049 nM and 0 nM. The flow cells of the first chip comprised of blank, human HER2-ECD-Fc-6×His, p95HER2-ECD-Fc-6×His batch I and p95HER2-ECD-Fc-6×His batch II. The flow cells on the second chip contained blank, human HER2-ECD-Fc, rhesus HER2-ECD-Fc and rat HER2 ECD-Fc. The immobilization of the proteins was validated with protein-A (Sigma-Aldrich, St. Louis, Mo., Cat. Nr: P6031) and anti-human IgG antibody (Perkin Elmer, Waltham, Mass., Cat. Nr: NEF803001EA). [^19F]GE-226[SEQ ID NO 1] was pumped in duplicate over cells in randomized order for 60 sec at 50 μL/min flow rate followed by 120 sec of HBS-EP to monitor dissociation. This was followed by regeneration of the chip with 50 mM sodium hydroxide for 30 sec at 30 μL/min flow rate followed by 60 sec run of HBS-EP to stabilize the surface. Kinetic calculations were performed using Langmuir 1:1 binding model and simultaneous calculation of association and dissociation phase.

Row | Kd (rhesus HER2; Rhesus HER2, read-out: Affinity KD) | binding to rhesus HER2 (words) (rhesus HER2; listed as GE-226) | binding to rhesus HER2 (words) (rhesus HER2; listed as [^19F]-GE-226) | Kd (rhesus HER2; rhesus HER2, text, read-out: KD) | Substance | NUV60 (SKOV-3 xenografts; PET, 60 minutes) | tumor tracer uptake at 2 h (SKOV-3 xenografts; SKOV-3 xenografts, 2 h versus 1 h) | Ki (net irreversible uptake rate) (SKOV-3 xenografts; two-tissue irreversible compartmental model) | Off-rate koff (rhesus HER2; Rhesus HER2) | On-rate kon (rhesus HER2; Rhesus HER2, Langmuir 1:1 binding model) | NUV60 of [18F]GE-226 in blocked tumors (SKOV-3 xenografts; 30 mg/kg [19F]GE-226 i.v. 20 minutes prior to PET scan)
1 | – | – | – | – | [^18F]GE-226: HER2-binding 18F-radiolabelled Affibody molecule ZHER2:2891 | 18.7±2.4 % ID/mL | higher at 2 h | 0.036±0.0065 mL/cm^3/min | – | – | –
2 | 0.0667 nM | binds with high affinity | high affinity binding | 0.067 nM | [^19F]GE-226: cold unlabeled non-radioactive 19F analogue of the tracer, used for SPR and blocking | – | – | – | 0.000425 s⁻¹ | 6.37e+06 M⁻¹ s⁻¹ | 7.1±1.6 % ID/mL
